# Assay results reported in PubChem BioAssay (NCI).
#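 Cultured in 96-well plates, cells were exposed to test compound for 48 hours across five concentrations. TGI denotes the concentration required for complete inhibition of growth.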
# What was measured:
# Test in all cases: NCI tumour cell line growth inhibition, 48 h
# [1] = tested on: OVCAR-3 ovarian
# [2] = tested on: NCI-H522 lung
# [3] = tested on: SW-620 colon
# [4] = tested on: ACHN renal
# [5] = tested on: RPMI-8226 leukemia
# [6] = tested on: SN12C renal
# [7] = tested on: CAKI-1 renal
# [8] = tested on: K-562 leukemia
# [9] = tested on: M14 melanoma
# [10] = tested on: U251 CNS
# [11] = tested on: HCT-15 colon
# [12] = tested on: MALME-3M melanoma
# [13] = tested on: UO-31 renal
# [14] = tested on: HT29 colon
# [15] = tested on: BT-549 breast
# [16] = tested on: T-47D breast
# [17] = tested on: SR leukemia
# [18] = tested on: MDA-MB-231 breast
# [19] = tested on: EKVX NSCLC
# [20] = tested on: SK-MEL-2 melanoma
# [21] = tested on: SK-OV-3 ovarian
# [22] = tested on: UACC-62 melanoma
# [23] = tested on: LOX IMVI melanoma
# [24] = tested on: UACC-257 melanoma
# [25] = tested on: SK-MEL-5 melanoma
# [26] = tested on: MDA-MB-435
# [27] = tested on: SF-268 CNS
# [28] = tested on: HCT-116 colon
# [29] = tested on: COLO 205 colon
# [30] = tested on: SK-MEL-28 melanoma
# [31] = tested on: HOP-92 NSCLC
# [32] = tested on: OVCAR-4 ovarian
# [33] = tested on: DU-145 prostate
# [34] = tested on: SF-295 CNS
# [35] = tested on: A549 NSCLC
# [36] = tested on: NCI-H23 lung
# [37] = tested on: OVCAR-5 ovarian
# [38] = tested on: HOP-62 NSCLC
# [39] = tested on: IGROV1 ovarian
# [40] = tested on: 786-0 renal
# [41] = tested on: OVCAR-8 ovarian
# [42] = tested on: SF-539 CNS
# [43] = tested on: PC-3 prostate
# [44] = tested on: KM12 colon
# [45] = tested on: HCC-2998 colon
# [46] = tested on: A498 renal
# [47] = tested on: TK-10 renal
# [48] = tested on: HL-60(TB) leukemia
# [49] = tested on: HS 578T breast
# [50] = tested on: NCI-H460 lung
# [51] = tested on: RXF 393 renal
# [52] = tested on: NCI/ADR-RES ovarian
# [53] = tested on: MCF7 breast
# [54] = tested on: MOLT-4 leukemia
# [55] = tested on: CCRF-CEM leukemia
# [56] = tested on: SNB-19 CNS
# [57] = tested on: MDA-N
smiles,measurement,setting,value
COC1C(=O)N(SC)C1c1ccccc1Cl (configuration not stated),TGI,[1],34.3 µM
same,TGI,[2],33.5 µM
same,TGI,[3],45.6 µM
same,TGI,[4],33.9 µM
same,TGI,[5],44.5 µM
same,TGI,[6],47.3 µM
same,TGI,[7],> 100 µM
same,TGI,[8],66.2 µM
same,TGI,[9],94.2 µM
same,TGI,[10],> 100 µM
same,TGI,[11],45.1 µM
same,TGI,[12],44.4 µM
same,TGI,[13],33.3 µM
same,TGI,[14],40.7 µM
same,TGI,[15],54.2 µM
same,TGI,[16],58.5 µM
same,TGI,[17],42.4 µM
same,TGI,[18],87.3 µM
same,TGI,[19],64.6 µM
same,TGI,[20],> 100 µM
same,TGI,[21],> 100 µM
same,TGI,[22],> 100 µM
same,TGI,[23],> 100 µM
same,TGI,[24],> 100 µM
same,TGI,[25],> 100 µM
same,TGI,[26],53.9 µM
same,TGI,[27],> 100 µM
same,TGI,[28],24.4 µM
same,TGI,[29],> 100 µM
same,TGI,[30],> 100 µM
same,TGI,[31],> 100 µM
same,TGI,[32],30.3 µM
same,TGI,[33],> 100 µM
same,TGI,[34],> 100 µM
same,TGI,[35],> 100 µM
same,TGI,[36],> 100 µM
same,TGI,[37],32.2 µM
same,TGI,[38],> 100 µM
same,TGI,[39],38.6 µM
same,TGI,[40],32.9 µM
same,TGI,[41],39.4 µM
same,TGI,[42],35.2 µM
same,TGI,[43],> 100 µM
same,TGI,[44],> 100 µM
same,TGI,[45],28.8 µM
same,TGI,[46],> 100 µM
same,TGI,[47],> 100 µM
same,TGI,[48],42.2 µM
same,TGI,[49],> 100 µM
same,TGI,[50],> 100 µM
same,TGI,[51],> 100 µM
same,TGI,[52],> 100 µM
same,TGI,[53],43 µM
same,TGI,[54],31.6 µM
same,TGI,[55],35.1 µM
same,TGI,[56],> 100 µM
same,TGI,[57],> 100 µM
